Some test systems named below: A549 NSCLC; CCRF-CEM leukemia; HOP-62 NSCLC; HS 578T breast; MCF7 breast; NCI-H226 lung; RPMI-8226 leukemia; SF-539 CNS.
What all share (assay): DTP human tumour cell line panel, 48 h

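Values below derive from 48-hour exposures of cells grown in 96-well plates, with endpoints linearly interpolated between the two concentrations bracketing the appropriate inhibition level. GI50 marks 50% less growth. Definition used: TGI = concentration required for complete inhibition of growth.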

`CCN(CC)CCCC(C)Nc1c(C)cnc2cc(Cl)c(C)cc12` (centres undefined): the GI50 in the assay on A549 NSCLC was 15.1 µM; in the assay on CCRF-CEM leukemia, 8.66 µM; in the assay with HOP-62 NSCLC it was 18.2 µM; in the assay with HS 578T breast, 19.1 µM; in the assay on MCF7 breast, 16.2 µM; with NCI-H226 lung, 4.57 µM. In addition, the GI50 with RPMI-8226 leukemia was 2.38 µM; in the assay with SF-539 CNS it was 6.83 µM. Besides, the total growth inhibition concentration (TGI) in the assay on A549 NSCLC came out at 30 µM; in the assay with CCRF-CEM leukemia, 34.8 µM; in the assay on HOP-62 NSCLC, 32.9 µM; with HS 578T breast it was 45.2 µM; with MCF7 breast it was 35.3 µM; in the assay with NCI-H226 lung, 15 µM. Further, the TGI in the assay with RPMI-8226 leukemia was determined as 9.82 µM; in the assay with SF-539 CNS, 21.1 µM.
As to `COc1cc(C2=NN(C(C)=O)C(c3ccc(OC(C)=O)cc3OC(C)=O)O2)c(OC(C)=O)c2ccccc12` (centres undefined), the GI50 with A549 NSCLC is 1.57 µM; in the assay on CCRF-CEM leukemia it was 0.338 µM; with HOP-62 NSCLC, 0.565 µM; in the assay on HS 578T breast, 13.1 µM; in the assay with MCF7 breast, 2.73 µM; in the assay on NCI-H226 lung, 1.15 µM. Also, the results for the GI50 with RPMI-8226 leukemia and in the assay on SF-539 CNS were 2.74 µM and 0.697 µM, respectively. Besides, the TGI in the assay on A549 NSCLC was 28.4 µM; in the assay with CCRF-CEM leukemia, 8.03 µM; in the assay on HOP-62 NSCLC, 14.6 µM; in the assay with HS 578T breast, greater than 100 µM; with MCF7 breast, 16.1 µM; in the assay on NCI-H226 lung, 14.4 µM. The total growth inhibition concentration (TGI) came out at 14.7 µM in the assay on RPMI-8226 leukemia and 3.48 µM in the assay with SF-539 CNS.
In the case of `O=C(Nc1ccc(Cl)cc1)c1cc(-c2ccc(F)cc2)c2sc(=O)[nH]c2n1`, the GI50 with A549 NSCLC is 2.45 µM; with CCRF-CEM leukemia, 0.657 µM; with HOP-62 NSCLC, 2.04 µM; in the assay with HS 578T breast, 2.13 µM; with MCF7 breast, 1.31 µM; with NCI-H226 lung, 1.11 µM. Further, the GI50 with RPMI-8226 leukemia is 0.391 µM; in the assay with SF-539 CNS it was 2.07 µM. Besides, the TGI with A549 NSCLC was determined as 10.1 µM; with CCRF-CEM leukemia, 9.9 µM; with HOP-62 NSCLC, 5.69 µM; with HS 578T breast, 13.1 µM; in the assay on MCF7 breast it was 11.3 µM; with NCI-H226 lung, 3.93 µM. The TGI in the assay with RPMI-8226 leukemia came to 2.22 µM; in the assay on SF-539 CNS, 5.71 µM.
Consider `CC1CN1CC(O)C(O)CN1CC1C` (centres undefined), for which the GI50 was 2.08 µM in the assay on A549 NSCLC; 1.41 µM with CCRF-CEM leukemia; 2.89 µM in the assay on HOP-62 NSCLC; 11.3 µM in the assay on HS 578T breast; 0.427 µM in the assay on MCF7 breast; 5.23 µM with NCI-H226 lung. Also, the results for the GI50 with RPMI-8226 leukemia and in the assay on SF-539 CNS were 8.86 µM and 1.84 µM, respectively. The concentration for total growth inhibition (TGI) was 33 µM in the assay with A549 NSCLC; greater than 100 µM in the assay with CCRF-CEM leukemia; greater than 71.9 µM with HOP-62 NSCLC; 57.4 µM in the assay on HS 578T breast; 36.6 µM in the assay on MCF7 breast; 50.1 µM in the assay with NCI-H226 lung. The total growth inhibition concentration (TGI) is greater than 88.6 µM in the assay with RPMI-8226 leukemia and 45.4 µM with SF-539 CNS.
With `COc1ccc2c(c1)C(=O)c1c-2n(CCCn2ccnc2)c(=O)c2ccccc12`, the GI50 in the assay on A549 NSCLC was 0.511 µM; with CCRF-CEM leukemia, 0.213 µM; with HOP-62 NSCLC it was 0.137 µM; in the assay with HS 578T breast, 1.49 µM; in the assay with MCF7 breast, 0.0241 µM; in the assay with NCI-H226 lung, 1.12 µM. Moreover, the concentration for 50% growth inhibition (GI50) in the assay with RPMI-8226 leukemia is 0.223 µM; in the assay on SF-539 CNS, 0.244 µM. Further, the concentration for total growth inhibition (TGI) in the assay on A549 NSCLC amounted to 4.66 µM; in the assay on CCRF-CEM leukemia, 24.8 µM; in the assay on HOP-62 NSCLC, 0.781 µM; in the assay on HS 578T breast, 17.8 µM; in the assay with MCF7 breast, 1.84 µM; with NCI-H226 lung, 5.58 µM. Moreover, the figures for the TGI in the assay on RPMI-8226 leukemia and in the assay on SF-539 CNS were 2 µM and 0.906 µM, respectively.
Consider `COc1cc(NC(=O)c2cc(O)c(CC=C(C)C)c(O)c2)cc2c1O[C@]1(C)CC[C@@H](O)C(C)(C)[C@H]1C2`, for which the GI50 is 6.87 µM in the assay with A549 NSCLC; 2.21 µM in the assay on CCRF-CEM leukemia; 5.2 µM in the assay on HOP-62 NSCLC; 0.456 µM in the assay on HS 578T breast; 2.1 µM with MCF7 breast; 11.2 µM in the assay on NCI-H226 lung. The GI50 in the assay on RPMI-8226 leukemia was 0.428 µM; with SF-539 CNS, 0.659 µM. Moreover, the total growth inhibition concentration (TGI) was 23.2 µM in the assay with A549 NSCLC; greater than 100 µM in the assay on CCRF-CEM leukemia; 30.9 µM with HOP-62 NSCLC; 15.5 µM with HS 578T breast; 15.4 µM in the assay with MCF7 breast; 31.7 µM in the assay on NCI-H226 lung. Besides, the TGI turned out to be 2.73 µM in the assay with RPMI-8226 leukemia and 4.02 µM in the assay on SF-539 CNS.
For `CC(=O)OC1Oc2ccccc2-c2oc(=O)c(-c3cc4ccc(N(C)C)cc4oc3=O)cc21` (centres undefined), the GI50 is 12.5 µM in the assay on A549 NSCLC; 2.89 µM with CCRF-CEM leukemia; 4.63 µM with HOP-62 NSCLC; 4.56 µM in the assay with HS 578T breast; 10.2 µM in the assay with MCF7 breast; 11.2 µM with NCI-H226 lung. Further, the concentration for 50% growth inhibition (GI50) with RPMI-8226 leukemia is 0.392 µM; with SF-539 CNS it was 12.4 µM. The TGI in the assay on A549 NSCLC came out at 36.9 µM; in the assay with CCRF-CEM leukemia, 24.2 µM; in the assay on HOP-62 NSCLC it was 25.4 µM; in the assay with HS 578T breast, 26.1 µM; in the assay with MCF7 breast, 29.8 µM; in the assay on NCI-H226 lung it was 28.3 µM. The results for the TGI in the assay on RPMI-8226 leukemia and in the assay with SF-539 CNS were 15 µM and 27.3 µM, respectively.
For the compound `COc1cc[nH]c1/C=C1\C(=O)Nc2ccccc21`, the GI50 was 11.1 µM in the assay with A549 NSCLC; 13.1 µM in the assay on CCRF-CEM leukemia; greater than 19.3 µM in the assay on HOP-62 NSCLC; 5.91 µM in the assay on HS 578T breast; 5.79 µM in the assay with MCF7 breast; 7.14 µM in the assay on NCI-H226 lung. Also, the figures for the GI50 in the assay with RPMI-8226 leukemia and with SF-539 CNS were 14.5 µM and 7.02 µM, respectively. In addition, the TGI with A549 NSCLC, in the assay with CCRF-CEM leukemia, in the assay on HOP-62 NSCLC, in the assay on HS 578T breast, in the assay on MCF7 breast and in the assay on NCI-H226 lung was greater than 25 µM in each case. Besides, the TGI with RPMI-8226 leukemia and in the assay with SF-539 CNS was greater than 25 µM throughout.
As to `CCCCN=C(N)c1ccc(OCCSCCOc2ccc(C(N)=NCCCC)cc2)cc1`, the GI50 in the assay with A549 NSCLC is 4.47 µM; in the assay on CCRF-CEM leukemia, 20.7 µM; with HOP-62 NSCLC, 12.1 µM; in the assay on HS 578T breast, 34.2 µM; in the assay on MCF7 breast, 3.34 µM; in the assay on NCI-H226 lung it was 65.4 µM. Further, the GI50 is 2.71 µM with RPMI-8226 leukemia and 5.59 µM in the assay with SF-539 CNS. The TGI in the assay with A549 NSCLC, with CCRF-CEM leukemia, with HOP-62 NSCLC, with HS 578T breast, in the assay on MCF7 breast and in the assay on NCI-H226 lung was greater than 100 µM throughout. In addition, the TGI is 53.4 µM in the assay on RPMI-8226 leukemia and greater than 100 µM with SF-539 CNS.

Broadly, the GI50 is the concentration at which growth is held to half of that of the control. As a reminder, the TGI is the concentration at which net growth stops. Read a low TGI as more potent growth arrest.

(Values after PubChem BioAssay (NCI).)
